Reference: patent publication US20180155344A1, “TRICYCLIC PIPERIDINE COMPOUNDS” (ACTELION PHARMACEUTICALS LTD, priority 2015, published 2018)

Molecular target: T1, human TPH1 (Homo sapiens, UniProt P17752)
T1 sequence (P17752 1-444): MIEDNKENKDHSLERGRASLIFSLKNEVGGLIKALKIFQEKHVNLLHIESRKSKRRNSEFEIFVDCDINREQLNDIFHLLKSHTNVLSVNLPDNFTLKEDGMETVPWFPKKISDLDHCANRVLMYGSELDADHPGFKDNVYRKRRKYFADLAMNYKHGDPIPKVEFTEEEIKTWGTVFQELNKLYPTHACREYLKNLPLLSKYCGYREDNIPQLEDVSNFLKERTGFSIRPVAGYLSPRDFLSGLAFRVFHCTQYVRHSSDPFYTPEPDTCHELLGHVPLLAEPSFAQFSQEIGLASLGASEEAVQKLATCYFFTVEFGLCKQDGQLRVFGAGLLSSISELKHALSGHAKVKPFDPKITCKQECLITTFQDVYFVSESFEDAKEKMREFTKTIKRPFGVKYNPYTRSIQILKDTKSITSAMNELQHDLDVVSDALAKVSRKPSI
Assay: biochemical
Text: Biochemical In Vitro Assay Using Fluorescence Readout
To generate the enzyme, full length human TPH1 is cloned into the plasmid pET20b(+) (Novagen) and expressed in E. coli. The bacterial cells are ruptured by sonication on ice and the lysate is cleared by centrifugation. The resulting protein in the pellet is re-extracted and TPH1 is purified from the obtained lysate by affinity chromatography using a pterin cosubstrate analog immobilized to the resin of the column. The protein is further purified by size exclusion chromatography to remove protein aggregates. The activity of TPH1 is determined by using a fluorescence assay. The enzyme activity assay is carried out at 15° C. with atmosphere oxygen for the duration of 60 minutes in a volume of 64 μl. The reaction is carried out in a 0.1 M Tris-HCl buffer, adjusted to pH 7.6, containing 1 mM DTT, 0.2 mg/mL catalase, 100 μM (±)-6-methyl-5,6,7,8-tetrahydropterine dihydrochloride, 40 μM L-tryptophan, and 40-80 nM of TPH1. The reaction is started by bringing together L-tryptophan with all the other reaction substituents and stopped by quenching with perchloric acid (HClO4). The amount of 5-hydroxy-L-tryptophan produced during the enzymatic reaction is determined by fluorescence readout. Fluorescence, as determined at 540 nm when excited at 300 nm wavelength, increases proportionally to the 5-hydroxy-L-tryptophan formed. Compounds are prepared as 10 mM stock solution in DMSO, then diluted in 384-well plates using DMSO followed by a transfer of the dilutions into the assay plate. Fluorescence is measured for each well and the fluorescence at 540 nm wavelength is compared to the fluorescence of the vehicle in place of compound. […] The calculated IC50 values may fluctuate depending on the daily biochemical assay performance. Fluctuations of this kind are known to those skilled in the art.

Structure (SMILES)	IC50 [nM]
O=C(COc1ccc(CN2CCOCC2)cc1Cl)N1CCc2nc3cc(C(F)(F)F)ccn3c2C1c1ncccc1F (centres unmarked) [Example 3.21.2, 2-(2-chloro-4-(morpholinomethyl)phenoxy)-1-(1-(3-fluoropyridin-2-yl)-7-(trifluoromethyl)-3,4-dihydroimidazo[1,2-a:5,4-c′]dipyridin-2(1H)-yl)ethan-1-one]	345
O=C(COc1ccc(CN2CCOCC2)nc1Cl)N1CCc2nc3ccccn3c2C1c1ccc(Cl)cc1F (centres unmarked) [Example 1.4.4, 1-(1-(4-chloro-2-fluorophenyl)-3,4-dihydroimidazo[1,2-a:5,4-c′]dipyridin-2(1H)-yl)-2-((2-chloro-6-(morpholinomethyl)pyridin-3-yl)oxy)ethan-1-one]	90
CS(=O)(=O)Nc1ccc(OCC(=O)N2CCc3nc4ccc(F)cn4c3C2c2ccc(Cl)cc2F)c(Cl)n1 (centres unmarked) [Example 11.2.1, N-(6-chloro-5-(2-(1-(4-chloro-2-fluorophenyl)-8-fluoro-3,4-dihydroimidazo[1,2-a:5,4-c′]dipyridin-2(1H)-yl)-2-oxoethoxy)pyridin-2-yl)methanesulfonamide]	72
COc1ccc(C2c3c(nc4ccc(C(F)(F)F)cn34)CCN2C(=O)COc2ccc3ccccc3c2)cc1OC (centres unmarked) [Example 12.1.1, 1-(1-(3,4-dimethoxyphenyl)-8-(trifluoromethyl)-3,4-dihydroimidazo[1,2-a:5,4-c′]dipyridin-2(1H)-yl)-2-(naphthalen-2-yloxy)ethan-1-one]	183
CCc1ncccc1OCC(=O)N1CCc2nc3ccccn3c2C1c1ccc(Cl)nc1F (centres unmarked) [Example 1.11.2, 1-(1-(6-chloro-2-fluoropyridin-3-yl)-3,4-dihydroimidazo[1,2-a:5,4-c′]dipyridin-2(1H)-yl)-2-((2-ethylpyridin-3-yl)oxy)ethan-1-one]	123
COc1ncc(C2c3c(nc4cc(C(F)(F)F)ccn34)CCN2C(=O)COc2ccc3ccccc3c2)cn1 (centres unmarked) [Example 3.55.1, 1-(1-(2-methoxypyrimidin-5-yl)-7-(trifluoromethyl)-3,4-dihydroimidazo[1,2-a:5,4-c′]dipyridin-2(1H)-yl)-2-(naphthalen-2-yloxy)ethan-1-one]	67
O=C(COc1ccc(C(F)(F)F)nc1Cl)N1CCc2nc3cccnn3c2C1c1ncc(C2CC2)cc1F (centres unmarked) [Example 16.2.6, 2-((2-chloro-6-(trifluoromethyl)pyridin-3-yl)oxy)-1-(9-(5-cyclopropyl-3-fluoropyridin-2-yl)-6,9-dihydropyrido[4′,3′:4,5]imidazo[1,2-b]pyridazin-8(7H)-yl)ethan-1-one]	290
CS(=O)(=O)Nc1ccc(OCC(=O)N2CCc3nc4cccnn4c3C2c2ccc(Cl)cc2F)c(Cl)n1 (centres unmarked) [Example 16.4.1, N-(6-chloro-5-(2-(9-(4-chloro-2-fluorophenyl)-6,9-dihydropyrido[4′,3′:4,5]imidazo[1,2-b]pyridazin-8(7H)-yl)-2-oxoethoxy)pyridin-2-yl)methanesulfonamide]	167
COc1ccc(C2c3c(nc4ccc(Cl)cn34)CCN2C(=O)COc2ccc3ccccc3c2)cc1OC (centres unmarked) [Example 9.1.1, 1-(8-chloro-1-(3,4-dimethoxyphenyl)-3,4-dihydroimidazo[1,2-a:5,4-c′]dipyridin-2(1H)-yl)-2-(naphthalen-2-yloxy)ethan-1-one]	145
COc1ccc(C2c3c(nc4cc(C(F)(F)F)ccn34)CCN2C(=O)COc2ccc3ncccc3c2)cc1OC (centres unmarked) [Example 3.1.19]	117

Stronger by IC50, values ahead:

IC50 [nM]	Structure (SMILES)
43	CN(C)C(=O)c1csc(C2c3c(nc4cccnn34)CCN2C(=O)COc2ccc(N3CCOCC3)nc2Cl)c1 (centres unmarked) [Example 16.3.1, 5-(8-(2-((2-Chloro-6-morpholinopyridin-3-yl)oxy)acetyl)-6,7,8,9-tetrahydropyrido[4′,3′:4,5]imidazo[1,2-b]pyridazin-9-yl)-N,N-dimethylthiophene-3-carboxamide]
40	COc1ccc(C2c3c(nc4ccccn34)CCN2C(=O)COc2ccc(NS(C)(=O)=O)nc2Cl)c(F)c1 (centres unmarked) [Example 1.3.2, N-(6-chloro-5-(2-(1-(2-fluoro-4-methoxyphenyl)-3,4-dihydroimidazo[1,2-a:5,4-c′]dipyridin-2(1H)-yl)-2-oxoethoxy)pyridin-2-yl)methanesulfonamide]
5	COc1cc(F)c(C2c3c(nc4cc(C(F)(F)F)ccn34)CCN2C(=O)COc2ccc(CN3CCOCC3)cc2Cl)cc1OC (centres unmarked) [Example 3.18.2, 2-(2-chloro-4-(morpholinomethyl)phenoxy)-1-(1-(2-fluoro-4,5-dimethoxyphenyl)-7-(trifluoromethyl)-3,4-dihydroimidazo[1,2-a:5,4-c′]dipyridin-2(1H)-yl)ethan-1-one]
30	COc1cc(C2c3c(nc4cc(C(F)(F)F)ccn34)CCN2C(=O)COc2ccc3ccccc3c2)cnc1OC (centres unmarked) [Example 3.19.1, 1-(1-(5,6-dimethoxypyridin-3-yl)-7-(trifluoromethyl)-3,4-dihydroimidazo[1,2-a:5,4-c′]dipyridin-2(1H)-yl)-2-(naphthalen-2-yloxy)ethan-1-one]
23	Cc1ccc(C2c3c(nc4cc(C(F)(F)F)ccn34)CCN2C(=O)COc2ccc(CN3CCOCC3)cc2Cl)cc1C (centres unmarked) [Example 3.10.2, 2-(2-chloro-4-(morpholinomethyl)phenoxy)-1-(1-(3,4-dimethylphenyl)-7-(trifluoromethyl)-3,4-dihydroimidazo[1,2-a:5,4-c′]dipyridin-2(1H)-yl)ethan-1-one]
42	Cc1nc(N(C)C)ccc1OCC(=O)N1CCc2nc3ccccn3c2C1c1ccc(C2CC2)cc1F (centres unmarked) [Example 1.5.3, 1-(1-(4-cyclopropyl-2-fluorophenyl)-3,4-dihydroimidazo[1,2-a:5,4-c′]dipyridin-2(1H)-yl)-2-((6-(dimethylamino)-2-methylpyridin-3-yl)oxy)ethan-1-one]
17	O=C(COc1ccc2ccccc2c1)N1CCc2nc3cc(C(F)(F)F)ccn3c2C1c1ccccc1F (centres unmarked) [Example 3.35.1, 1-(1-(2-fluorophenyl)-7-(trifluoromethyl)-3,4-dihydroimidazo[1,2-a:5,4-c′]dipyridin-2(1H)-yl)-2-(naphthalen-2-yloxy)ethan-1-one]
24	O=C(COc1ccc(CN2CCOCC2)cc1Cl)N1CCc2nc3cc(C(F)(F)F)ccn3c2C1c1cnn(-c2ccccc2)c1 (centres unmarked) [Example 3.41.2, 2-(2-chloro-4-(morpholinomethyl)phenoxy)-1-(1-(1-phenyl-1H-pyrazol-4-yl)-7-(trifluoromethyl)-3,4-dihydroimidazo[1,2-a:5,4-c′]dipyridin-2(1H)-yl)ethan-1-one]
5	CS(=O)(=O)Nc1ccc(OCC(=O)N2CCc3nc4cc(C(F)(F)F)ccn4c3C2c2ccc(Cl)cc2F)c(Cl)n1 (centres unmarked) [Example 3.4.7, N-(6-chloro-5-(2-(1-(4-chloro-2-fluorophenyl)-7-(trifluoromethyl)-3,4-dihydroimidazo[1,2-a:5,4-c′]dipyridin-2(1H)-yl)-2-oxoethoxy)pyridin-2-yl)methanesulfonamide]
11	CCc1nc(C)ccc1OCC(=O)N1CCc2nc3cc(C(F)(F)F)ccn3c2C1c1ccc(C2CC2)cc1F (centres unmarked) [Example 3.5.1, 1-(1-(4-cyclopropyl-2-fluorophenyl)-7-(trifluoromethyl)-3,4-dihydroimidazo[1,2-a:5,4-c′]dipyridin-2(1H)-yl)-2-((2-ethyl-6-methylpyridin-3-yl)oxy)ethan-1-one]
21	CCc1nc(C)ccc1OCC(=O)N1CCc2nc3cc(C(F)(F)F)ccn3c2C1c1ccc(Cl)cc1F (centres unmarked) [Example 3.4.4, 1-(1-(4-chloro-2-fluorophenyl)-7-(trifluoromethyl)-3,4-dihydroimidazo[1,2-a:5,4-c′]dipyridin-2(1H)-yl)-2-((2-ethyl-6-methylpyridin-3-yl)oxy)ethan-1-one]
4	CCc1c(OCC(=O)N2CCc3nc4ccccn4c3C2c2ccc(OC)c(OC)c2)ccc2ccccc12 (centres unmarked) [Example 1.1.7, 1-(1-(3,4-dimethoxyphenyl)-3,4-dihydroimidazo[1,2-a:5,4-c′]dipyridin-2(1H)-yl)-2-((1-ethylnaphthalen-2-yl)oxy)ethan-1-one]
16	CCc1cc2nc3c(n2cc1C)C(c1ccc(OC)c(OC)c1)N(C(=O)COc1ccc(Cl)cc1Cl)CC3 (centres unmarked) [Example 6.1.1, 2-(2,4-dichlorophenoxy)-1-(1-(3,4-dimethoxyphenyl)-7-ethyl-8-methyl-3,4-dihydroimidazo[1,2-a:5,4-c′]dipyridin-2(1H)-yl)ethan-1-one]
